Ends that are not written are not given here.
What was measured:
[1] = tested on: HUVEC Endothelial organoids; test: Organoid stimulation with IL-1β and TGF-β and treatment with PIEZO1 or ROCK inhibitor; EndMT and endothelial marker expression; assay type: cell-based, human; settings: FIG. 14a/14b; for TAGLN expression / fibronectin expression: EndMT marker
Protocol: (§1) HUVEC Endothelial organoids were seeded in 384-well U-bottom ULA plates (S-bio #MS-9384UZ, lot 20839306) and centrifuged at 1,000 rpm for 5 min (142 rcf, Thermo Scientific Sorvall ST16 centrifuge). Endothelial organoid seeding volume was 25 μL per well. The HUVEC organoid seeding solution consisted of 120,000 HUVEC cells/mL, 160 μg/mL Matrigel (Corning #356-231, 10.7 mg/mL), 10% FBS (GeminiBio #900-108) and 0.24% methylcellulose (Methocel, Sigma Aldrich #94378). A key procedure being to add cold Matrigel into warm media to induce gelling.

[2] = tested on: HUVEC Endothelial organoids; test: LPS and TNF-α stimulated endothelial organoid; E-selectin immunofluorescence and bright field imaging; assay type: cell-based, human
Protocol: as §1
Fixed HUVEC Organoids were washed with PBS and permeabilized with 0.1% Tween in PBS for 10 min at 4° C. Samples were incubated with Organoid washing buffer (OWB, 0.2% BSA/0.1% Triton-X-100 in PBS) to prevent non-specific binding for 15 min at 4° C. Samples were incubated with primary antibodies in OWB at 4° C. overnight. Primary antibodies include: SELE Rabbit pAb (ABclonal, #A2191, Lot 5500024697, 1:1,000 dilution), Human VE-Cadherin Antibody (R&D systems, #AF938, 1:40 dilution) and Mouse anti-CD34 antibody (Clone QBEND/10, Invitrogen #MA1-10202, 1:500 dilution). Samples were washed with OWB and incubated with secondary antibodies or Alexa Fluor 647 Phalloidin (Invitrogen, #A22287, Lot 2170291, 1:400 dilution) in OWB for 2 hours at room temperature (RT). Secondary antibodies include: Goat anti-Rabbit Alexa Fluor 647 (Invitrogen, #A-21244, Lot 2134003, 1:500 dilution), Donkey anti-rat Alexa Fluor 488 (1:2,000 dilution), Goat anti-mouse Alexa Fluor 488 (Thermo Fisher, #A-11001, 1:2,000 dilution) and Donkey anti-mouse Alexa Fluor 568 (Invitrogen #A10037, 1:1,000 dilution). Organoids were washed with PBS and incubated with DAPI in PBS for 30 min at RT and imaged using Spinning disk Confocal microscope (Nikon, CSU-W1) with 10×, 20× and 60× magnification. E-selectin, Integrin α6 and CD34 stained organoids were performed without permeabilization step, VE-Cadherin and Phalloidin stained organoids were performed with permeabilization step
There is currently a lot of research being conducted on endothelial cells in relation to inflammation. […]

Compound | TAGLN expression [1] | fibronectin expression [1] | PECAM1 expression [1] | changes in the bright field (BF) ([2]; after 24 hours of treatment) | E-selectin signal on the surface of the organoids ([2]; fluorescent staining after 24 hours of treatment, compared to the control group, FIG. 11) | E-selectin fluorescence in relation to concentration ([2]; fluorescent staining, FIG. 11)
IL-1β: cytokine used for organoid stimulation; its effect indicated an inflammatory response | without affecting fibronectin or TAGLN levels | without affecting fibronectin | reduced PECAM1 expression |  |  | 
TNF-α |  |  |  | no significant changes were observed | showed expression of the E-selectin signal | increase in fluorescence proportional to their concentrations
GsMTx4: PIEZO1 inhibitor (GCLEFWWKCNPNDDKCCRPKLKCSKLFKLCNFSF; ends and bridges not checked; cysteine pairing not given here; UniProt Q7YT39 47-80, looked up) | did not alter TAGLN | decreased fibronectin expression |  |  |  | 
C[C@@H](N)[C@H]1CC[C@H](C(=O)Nc2ccncc2)CC1 [Y-27632] | TAGLN expression remained unchanged | elevated fibronectin levels | increased PECAM1 expression |  |  | 

Source: patent US20250354125A1, “HIGH-[…]-TERM CULTURED E[…] WITH ANGIOGENESIS” (priority 2024, published 2025)
